# Tests used:
# JAK1 [1] = molecular target: T1, JAK1 (Homo sapiens, UniProt P23458); assay: competition of Alk-Xa pull-down in cells; format: cell-based
# T1 construct: endogenous, MDA-MB-231 cells
# IKKα [2] = molecular target: T2, IKKα (Homo sapiens, UniProt O15111); assay: competition of Alk-Xa pull-down in cells; format: cell-based
# T2 construct: gene CHUK; endogenous, MDA-MB-231 cells
# T2 sequence (O15111 1-745): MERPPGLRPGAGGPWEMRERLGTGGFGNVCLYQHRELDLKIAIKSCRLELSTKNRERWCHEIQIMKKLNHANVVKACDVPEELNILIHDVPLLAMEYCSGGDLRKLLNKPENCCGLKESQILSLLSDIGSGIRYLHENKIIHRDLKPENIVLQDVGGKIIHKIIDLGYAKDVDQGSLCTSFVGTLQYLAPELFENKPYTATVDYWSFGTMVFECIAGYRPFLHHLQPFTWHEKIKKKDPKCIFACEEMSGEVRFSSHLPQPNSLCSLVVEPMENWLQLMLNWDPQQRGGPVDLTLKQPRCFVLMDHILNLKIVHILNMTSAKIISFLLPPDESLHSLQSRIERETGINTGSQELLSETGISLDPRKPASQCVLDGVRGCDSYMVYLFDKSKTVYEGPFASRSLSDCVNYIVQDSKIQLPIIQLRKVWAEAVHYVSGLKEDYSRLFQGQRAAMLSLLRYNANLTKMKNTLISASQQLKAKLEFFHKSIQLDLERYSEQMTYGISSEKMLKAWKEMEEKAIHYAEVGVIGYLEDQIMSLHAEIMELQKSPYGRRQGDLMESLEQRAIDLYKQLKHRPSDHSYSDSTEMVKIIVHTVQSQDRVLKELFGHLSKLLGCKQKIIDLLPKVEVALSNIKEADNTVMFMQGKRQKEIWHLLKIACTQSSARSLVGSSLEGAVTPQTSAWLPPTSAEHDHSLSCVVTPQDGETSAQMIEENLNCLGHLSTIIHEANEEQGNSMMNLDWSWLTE
# IKKβ [3] = molecular target: T3, IKKβ (Homo sapiens, UniProt O14920); assay: in vitro kinase assay with immunoprecipitated IKKβ; adducts confirmed by LC-MS/MS; format: biochemical
# T3 construct: gene IKBKB; IKKβ-FLAG immunoprecipitated from HEK293 cells
# T3 sequence (O14920 1-756): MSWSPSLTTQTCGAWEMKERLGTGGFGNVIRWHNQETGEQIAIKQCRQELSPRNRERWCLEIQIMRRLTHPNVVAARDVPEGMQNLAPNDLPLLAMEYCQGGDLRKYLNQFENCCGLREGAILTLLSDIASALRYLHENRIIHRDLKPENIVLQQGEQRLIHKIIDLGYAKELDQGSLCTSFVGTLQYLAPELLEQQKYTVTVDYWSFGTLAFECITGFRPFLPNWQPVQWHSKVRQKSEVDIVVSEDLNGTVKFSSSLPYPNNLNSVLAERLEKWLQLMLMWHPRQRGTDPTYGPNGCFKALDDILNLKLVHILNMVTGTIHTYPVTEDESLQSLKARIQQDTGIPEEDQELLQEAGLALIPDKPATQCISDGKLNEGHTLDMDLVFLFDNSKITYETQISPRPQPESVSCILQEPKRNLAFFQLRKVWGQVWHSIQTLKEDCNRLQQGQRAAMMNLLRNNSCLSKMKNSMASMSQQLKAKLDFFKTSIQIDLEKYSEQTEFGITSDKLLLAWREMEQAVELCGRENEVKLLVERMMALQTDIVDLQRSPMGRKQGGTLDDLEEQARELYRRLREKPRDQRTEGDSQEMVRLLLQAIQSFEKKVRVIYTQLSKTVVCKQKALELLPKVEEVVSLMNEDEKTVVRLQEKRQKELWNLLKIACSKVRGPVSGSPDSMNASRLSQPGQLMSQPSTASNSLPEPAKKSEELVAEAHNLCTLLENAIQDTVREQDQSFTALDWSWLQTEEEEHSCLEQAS
# JAK2 [4] = molecular target: T4, JAK2 (Homo sapiens, UniProt O60674); assay: in vitro kinase assay with immunoprecipitated JAK2; adduct confirmed by LC-MS/MS; format: biochemical
# T4 construct: JAK2-FLAG immunoprecipitated from HEK293 cells
# T4 sequence (O60674 whole entry): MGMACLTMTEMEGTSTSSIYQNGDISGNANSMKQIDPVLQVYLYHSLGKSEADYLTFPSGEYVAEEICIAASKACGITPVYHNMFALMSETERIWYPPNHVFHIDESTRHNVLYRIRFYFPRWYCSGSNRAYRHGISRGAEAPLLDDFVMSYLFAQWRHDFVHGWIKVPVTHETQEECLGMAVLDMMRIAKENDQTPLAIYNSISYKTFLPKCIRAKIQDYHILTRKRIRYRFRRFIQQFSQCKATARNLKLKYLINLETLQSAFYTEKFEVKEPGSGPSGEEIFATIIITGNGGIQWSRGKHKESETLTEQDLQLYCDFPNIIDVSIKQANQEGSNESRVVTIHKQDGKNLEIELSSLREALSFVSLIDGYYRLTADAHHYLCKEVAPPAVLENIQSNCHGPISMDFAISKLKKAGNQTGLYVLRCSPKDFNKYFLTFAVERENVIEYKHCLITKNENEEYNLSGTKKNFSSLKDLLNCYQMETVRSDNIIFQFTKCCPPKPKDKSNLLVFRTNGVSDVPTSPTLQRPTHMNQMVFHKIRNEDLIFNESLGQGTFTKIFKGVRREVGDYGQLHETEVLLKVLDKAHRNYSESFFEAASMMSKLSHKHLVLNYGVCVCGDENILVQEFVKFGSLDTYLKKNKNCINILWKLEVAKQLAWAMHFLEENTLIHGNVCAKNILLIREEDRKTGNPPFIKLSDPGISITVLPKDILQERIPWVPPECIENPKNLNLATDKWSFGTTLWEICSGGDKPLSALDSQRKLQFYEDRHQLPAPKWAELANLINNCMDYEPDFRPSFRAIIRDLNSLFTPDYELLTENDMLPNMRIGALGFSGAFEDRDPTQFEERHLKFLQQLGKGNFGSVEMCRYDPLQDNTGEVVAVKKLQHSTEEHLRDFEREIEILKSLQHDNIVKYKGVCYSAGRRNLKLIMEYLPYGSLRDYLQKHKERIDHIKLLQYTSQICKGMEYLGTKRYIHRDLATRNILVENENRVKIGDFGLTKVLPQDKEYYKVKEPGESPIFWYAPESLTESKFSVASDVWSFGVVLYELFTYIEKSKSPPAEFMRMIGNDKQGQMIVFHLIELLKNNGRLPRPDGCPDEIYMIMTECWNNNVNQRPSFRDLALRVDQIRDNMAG
# Tyk2 [5] = molecular target: T5, Tyk2 (Homo sapiens, UniProt P29597); assay: competition of Alk-Xa pull-down in cells; format: cell-based
# T5 construct: endogenous, MDA-MB-231 cells
# T5 sequence (P29597 whole entry): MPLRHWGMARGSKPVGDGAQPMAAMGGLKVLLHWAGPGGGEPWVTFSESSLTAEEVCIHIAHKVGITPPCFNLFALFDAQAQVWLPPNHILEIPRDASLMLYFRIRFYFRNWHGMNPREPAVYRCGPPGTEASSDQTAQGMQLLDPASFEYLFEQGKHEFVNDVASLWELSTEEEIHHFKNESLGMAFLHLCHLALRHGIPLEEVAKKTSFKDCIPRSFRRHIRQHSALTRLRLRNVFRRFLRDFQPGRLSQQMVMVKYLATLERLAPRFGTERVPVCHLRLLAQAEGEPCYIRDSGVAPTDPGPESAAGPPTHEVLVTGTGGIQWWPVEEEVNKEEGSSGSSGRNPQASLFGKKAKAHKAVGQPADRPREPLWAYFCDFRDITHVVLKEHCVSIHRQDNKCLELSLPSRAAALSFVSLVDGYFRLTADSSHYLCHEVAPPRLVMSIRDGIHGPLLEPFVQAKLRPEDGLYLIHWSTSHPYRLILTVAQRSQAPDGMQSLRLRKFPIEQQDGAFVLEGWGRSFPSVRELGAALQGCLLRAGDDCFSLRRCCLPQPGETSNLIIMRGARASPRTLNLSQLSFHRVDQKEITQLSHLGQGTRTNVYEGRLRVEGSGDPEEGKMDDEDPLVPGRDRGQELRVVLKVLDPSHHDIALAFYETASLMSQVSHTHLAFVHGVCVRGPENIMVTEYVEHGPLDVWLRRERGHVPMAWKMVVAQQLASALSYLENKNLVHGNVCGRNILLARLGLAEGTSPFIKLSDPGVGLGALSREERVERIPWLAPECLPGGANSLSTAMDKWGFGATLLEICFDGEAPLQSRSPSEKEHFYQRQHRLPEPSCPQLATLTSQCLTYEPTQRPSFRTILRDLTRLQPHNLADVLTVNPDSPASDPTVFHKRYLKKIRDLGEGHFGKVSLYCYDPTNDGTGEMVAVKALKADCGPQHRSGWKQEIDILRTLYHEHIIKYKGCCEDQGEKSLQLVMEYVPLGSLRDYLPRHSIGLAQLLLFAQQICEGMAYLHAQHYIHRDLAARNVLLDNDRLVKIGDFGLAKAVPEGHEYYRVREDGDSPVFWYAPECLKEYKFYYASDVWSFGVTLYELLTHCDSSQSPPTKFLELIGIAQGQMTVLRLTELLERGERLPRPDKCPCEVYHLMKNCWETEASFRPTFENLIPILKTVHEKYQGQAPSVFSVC
# JAK2 [6] = molecular target: T4, JAK2; assay: in-gel fluorescence after click labelling of immunoprecipitated protein; format: binding
# IKKβ [7] = molecular target: T3, IKKβ; assay: as above; format: binding
# IKKα [8] = molecular target: T2, IKKα; assay: click-chemistry pull-down from treated cells, competed by xanthatin; format: cell-based
# JAK1 [9] = molecular target: T1, JAK1; assay: as above; format: cell-based
# Tyk2 [10] = molecular target: T5, Tyk2; assay: as above; format: cell-based
# T1 sequence (P23458 whole entry): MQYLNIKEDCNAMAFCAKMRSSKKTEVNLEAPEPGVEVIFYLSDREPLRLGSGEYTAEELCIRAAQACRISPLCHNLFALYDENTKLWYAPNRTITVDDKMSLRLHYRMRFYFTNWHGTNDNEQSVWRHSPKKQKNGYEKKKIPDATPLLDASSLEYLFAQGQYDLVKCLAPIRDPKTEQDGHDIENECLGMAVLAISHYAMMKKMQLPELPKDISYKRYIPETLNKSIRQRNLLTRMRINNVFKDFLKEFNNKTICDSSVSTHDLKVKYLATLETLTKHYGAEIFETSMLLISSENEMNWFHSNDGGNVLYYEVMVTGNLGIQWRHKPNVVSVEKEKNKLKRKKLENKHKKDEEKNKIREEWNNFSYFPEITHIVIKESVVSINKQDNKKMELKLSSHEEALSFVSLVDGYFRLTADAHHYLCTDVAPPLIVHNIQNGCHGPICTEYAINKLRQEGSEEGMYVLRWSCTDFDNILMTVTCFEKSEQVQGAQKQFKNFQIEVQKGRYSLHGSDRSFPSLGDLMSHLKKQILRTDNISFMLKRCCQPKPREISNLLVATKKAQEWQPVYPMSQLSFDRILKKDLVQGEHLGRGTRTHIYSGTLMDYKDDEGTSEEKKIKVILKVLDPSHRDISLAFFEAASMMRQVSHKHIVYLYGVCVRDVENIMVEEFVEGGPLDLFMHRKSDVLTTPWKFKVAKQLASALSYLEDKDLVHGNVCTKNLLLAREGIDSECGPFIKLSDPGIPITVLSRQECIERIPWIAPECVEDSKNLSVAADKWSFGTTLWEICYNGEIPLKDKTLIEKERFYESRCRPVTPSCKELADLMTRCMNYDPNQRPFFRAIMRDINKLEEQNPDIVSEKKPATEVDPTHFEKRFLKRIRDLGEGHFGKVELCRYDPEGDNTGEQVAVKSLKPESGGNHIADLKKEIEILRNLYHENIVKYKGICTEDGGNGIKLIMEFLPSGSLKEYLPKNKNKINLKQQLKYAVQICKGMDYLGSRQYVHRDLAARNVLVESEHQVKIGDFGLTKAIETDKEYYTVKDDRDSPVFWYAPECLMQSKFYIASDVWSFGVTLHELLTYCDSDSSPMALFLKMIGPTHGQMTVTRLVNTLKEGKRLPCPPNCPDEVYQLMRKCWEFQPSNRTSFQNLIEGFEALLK
IC50 (IKKβ [3]),IC50 (JAK2 [4]),Structure (SMILES),competition of Alk-Xa pull-down in cells (JAK1 [1]),competition of Alk-Xa pull-down in cells (IKKα [2]),competition of Alk-Xa pull-down in cells (Tyk2 [5]),in-gel fluorescence after click labelling of immunoprecipitated protein (JAK2 [6]),in-gel fluorescence after click labelling of immunoprecipitated protein (IKKβ [7]),"click-chemistry pull-down from treated cells, competed by xanthatin (IKKα [8])","click-chemistry pull-down from treated cells, competed by xanthatin (JAK1 [9])","click-chemistry pull-down from treated cells, competed by xanthatin (Tyk2 [10])"
11.3 µM,4.08 µM,"C=C1C(=O)O[C@H]2C[C@H](C)C(/C=C/C(C)=O)=CC[C@H]12 [Xa, xanthatin]",the interactions could be competed away by excessive unlabelled xanthatin,the interactions could be competed away by excessive unlabelled xanthatin,the interactions could be competed away by excessive unlabelled xanthatin,,,,,
,,"C#CCNC(=O)/C=C/C1=CC[C@@H]2C(=C)C(=O)O[C@H]2C[C@@H]1C [Alk-Xa, Alk‐Xa]",,,,"fluorescence intensity of JAK2 and IKKβ was proportional to the dosage of Alk‐Xa, indicating that Alk‐Xa covalently bound","fluorescence intensity of JAK2 and IKKβ was proportional to the dosage of Alk‐Xa, indicating that Alk‐Xa covalently bound","JAK1, JAK2, Tyk2, IKKα and IKKβ were pulled down with the Alk‐Xa","JAK1, JAK2, Tyk2, IKKα and IKKβ were pulled down with the Alk‐Xa","JAK1, JAK2, Tyk2, IKKα and IKKβ were pulled down with the Alk‐Xa"

# From PMC6533482, “Xanthatin inhibits STAT3 and NF‐κB signalling by covalently binding to JAK and IKK kinases” (Journal of Cellular and Molecular Medicine, 2019)
